Test results reported in PMC5622171 (Nature Communications, 2017).

Key:
Experiment in all cases: KINOMEscan kinase profiling
Type in all cases: binding
CAMK2B = target: T1, CAMK2B (Homo sapiens, UniProt Q13554); details: read-out: %Inhibition by 10 μM SPA70
T1 construct: purchased DiscoverX (Ambit Biosciences) KINOMEscan
Protocol: (§1) Kinase inhibition profiling assays. The kinase inhibition profiling assay (KINOMEscan) was performed by Ambit Biosciences, now part of DiscoveryX (Fremont, CA) in accordance with the […]
(§2) published protocol20, 21. […] If the inhibition of a kinase was greater […]
(§3) dilutions) starting from 30 µM.

PAK7 = target: T2, PAK7 (Homo sapiens, UniProt Q9P286); details: read-out: %Inhibition by 10 μM SPA70
T2 construct: purchased DiscoverX (Ambit Biosciences) KINOMEscan
T2 sequence (Q9P286 whole entry): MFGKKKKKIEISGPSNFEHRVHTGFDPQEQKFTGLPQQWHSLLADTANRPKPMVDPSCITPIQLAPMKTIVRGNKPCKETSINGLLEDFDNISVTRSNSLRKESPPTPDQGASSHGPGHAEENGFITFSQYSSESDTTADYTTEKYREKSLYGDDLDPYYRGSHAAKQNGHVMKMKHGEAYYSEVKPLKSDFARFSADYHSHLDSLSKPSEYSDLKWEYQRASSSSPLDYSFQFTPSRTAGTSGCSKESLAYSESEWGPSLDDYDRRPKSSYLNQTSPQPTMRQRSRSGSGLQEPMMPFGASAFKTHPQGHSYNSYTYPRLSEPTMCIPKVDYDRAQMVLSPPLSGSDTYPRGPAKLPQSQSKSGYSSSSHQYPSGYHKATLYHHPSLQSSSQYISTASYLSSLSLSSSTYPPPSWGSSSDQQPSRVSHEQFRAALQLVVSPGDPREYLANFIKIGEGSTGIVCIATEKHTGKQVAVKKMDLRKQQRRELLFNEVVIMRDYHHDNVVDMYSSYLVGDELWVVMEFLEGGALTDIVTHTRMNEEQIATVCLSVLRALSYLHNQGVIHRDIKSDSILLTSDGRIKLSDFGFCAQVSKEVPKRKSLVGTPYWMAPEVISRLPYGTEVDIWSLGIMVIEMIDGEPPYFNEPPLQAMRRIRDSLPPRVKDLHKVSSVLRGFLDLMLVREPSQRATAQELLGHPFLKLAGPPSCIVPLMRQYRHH
Protocol: as §1, §2, §3

RIOK3 = target: T3, RIOK3 (Homo sapiens, UniProt O14730); details: read-out: %Inhibition by 10 μM SPA70
T3 construct: purchased DiscoverX (Ambit Biosciences) KINOMEscan
Protocol: as §1, §2, §3

TRKC = target: T4, TRKC (Homo sapiens, UniProt Q16288); details: read-out: %Inhibition by 10 μM SPA70
T4 construct: purchased DiscoverX (Ambit Biosciences) KINOMEscan
Protocol: as §1, §2, §3

PIP5K1C = target: T5, PIP5K1C (Homo sapiens, UniProt O60331)
T5 construct: purchased DiscoverX (Ambit Biosciences) KINOMEscan
Protocol: as §1, §2, §3

CSNK2A2 = target: T6, CSNK2A2 (Homo sapiens, UniProt P19784); details: read-out: %Inhibition by 10 μM SPA70
T6 construct: purchased DiscoverX (Ambit Biosciences) KINOMEscan
T6 sequence (P19784 whole entry): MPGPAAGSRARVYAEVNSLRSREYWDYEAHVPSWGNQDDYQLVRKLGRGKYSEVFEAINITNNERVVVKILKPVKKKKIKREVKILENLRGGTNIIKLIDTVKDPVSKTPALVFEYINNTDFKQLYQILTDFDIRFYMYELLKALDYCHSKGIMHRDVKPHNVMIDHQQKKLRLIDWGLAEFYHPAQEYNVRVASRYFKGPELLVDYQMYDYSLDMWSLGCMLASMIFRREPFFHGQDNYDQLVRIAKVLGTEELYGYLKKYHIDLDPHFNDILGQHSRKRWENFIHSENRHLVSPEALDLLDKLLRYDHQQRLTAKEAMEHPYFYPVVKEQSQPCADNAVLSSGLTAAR
Protocol: as §1, §2, §3

CIT = target: T7, CIT (Homo sapiens, UniProt O14578)
T7 construct: purchased DiscoverX (Ambit Biosciences) KINOMEscan
Protocol: as §1, §2, §3

CHEK2 = target: T8, CHEK2 (Homo sapiens, UniProt O96017); details: read-out: %Inhibition by 10 μM SPA70
T8 construct: purchased DiscoverX (Ambit Biosciences) KINOMEscan
Protocol: as §1, §2, §3

DYRK2 = target: T9, DYRK2 (Homo sapiens, UniProt Q92630); details: read-out: %Inhibition by 10 μM SPA70
T9 construct: purchased DiscoverX (Ambit Biosciences) KINOMEscan
T9 sequence (Q92630 whole entry): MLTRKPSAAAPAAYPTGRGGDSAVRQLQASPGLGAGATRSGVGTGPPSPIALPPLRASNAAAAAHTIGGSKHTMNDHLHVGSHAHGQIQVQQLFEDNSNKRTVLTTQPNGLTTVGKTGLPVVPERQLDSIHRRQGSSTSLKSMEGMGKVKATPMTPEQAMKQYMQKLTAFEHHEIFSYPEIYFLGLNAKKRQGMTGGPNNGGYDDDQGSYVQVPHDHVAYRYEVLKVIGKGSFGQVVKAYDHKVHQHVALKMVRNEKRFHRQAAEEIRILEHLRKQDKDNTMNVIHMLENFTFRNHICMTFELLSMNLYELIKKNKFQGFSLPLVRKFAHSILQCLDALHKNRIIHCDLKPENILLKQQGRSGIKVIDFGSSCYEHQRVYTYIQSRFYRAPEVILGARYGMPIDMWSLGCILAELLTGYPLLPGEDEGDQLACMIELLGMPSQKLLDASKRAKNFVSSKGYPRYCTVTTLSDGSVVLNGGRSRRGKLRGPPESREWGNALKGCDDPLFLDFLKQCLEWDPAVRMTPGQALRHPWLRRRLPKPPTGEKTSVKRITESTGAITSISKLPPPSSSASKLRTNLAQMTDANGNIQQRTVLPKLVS
Protocol: as §1, §2, §3

HUNK = target: T10, HUNK (Homo sapiens, UniProt P57058); details: read-out: %Inhibition by 10 μM SPA70
T10 construct: purchased DiscoverX (Ambit Biosciences) KINOMEscan
Protocol: as §1, §2, §3

CDKL3 = target: T11, CDKL3 (Homo sapiens, UniProt Q8IVW4); details: read-out: %Inhibition by 10 μM SPA70
T11 construct: purchased DiscoverX (Ambit Biosciences) KINOMEscan
Protocol: as §1, §2, §3

PHKG1 = target: T12, PHKG1 (Homo sapiens, UniProt Q16816); details: read-out: %Inhibition by 10 μM SPA70
T12 construct: purchased DiscoverX (Ambit Biosciences) KINOMEscan
Protocol: as §1, §2, §3

ULK1 = target: T13, ULK1 (Homo sapiens, UniProt O75385)
T13 construct: purchased DiscoverX (Ambit Biosciences) KINOMEscan
Protocol: as §1, §2, §3

JNK2 = target: T14, JNK2 (Homo sapiens, UniProt P45984)
T14 construct: purchased DiscoverX (Ambit Biosciences) KINOMEscan
Protocol: as §1, §2, §3

GAK = target: T15, GAK (Homo sapiens, UniProt O14976); details: read-out: %Inhibition by 10 μM SPA70
T15 construct: purchased DiscoverX (Ambit Biosciences) KINOMEscan
Protocol: as §1, §2, §3

DLK = target: T16, DLK (Homo sapiens, UniProt Q12852)
T16 construct: purchased DiscoverX (Ambit Biosciences) KINOMEscan
Protocol: as §1, §2, §3

OSR1 = target: T17, OSR1 (Homo sapiens, UniProt O95747); details: read-out: %Inhibition by 10 μM SPA70
T17 construct: purchased DiscoverX (Ambit Biosciences) KINOMEscan
Protocol: as §1, §2, §3

PCTK2 = target: T18, PCTK2 (Homo sapiens, UniProt Q00537); details: read-out: %Inhibition by 10 μM SPA70
T18 construct: purchased DiscoverX (Ambit Biosciences) KINOMEscan
Protocol: as §1, §2, §3

WEE2 = target: T19, WEE2 (Homo sapiens, UniProt P0C1S8); details: read-out: %Inhibition by 10 μM SPA70
T19 construct: purchased DiscoverX (Ambit Biosciences) KINOMEscan
Protocol: as §1, §2, §3

FRK = target: T20, FRK (Homo sapiens, UniProt P42685); details: read-out: %Inhibition by 10 μM SPA70
T20 construct: purchased DiscoverX (Ambit Biosciences) KINOMEscan
Protocol: as §1, §2, §3

STK36 = target: T21, STK36 (Homo sapiens, UniProt Q9NRP7); details: read-out: %Inhibition by 10 μM SPA70
T21 construct: purchased DiscoverX (Ambit Biosciences) KINOMEscan
Protocol: as §1, §2, §3

NEK11 = target: T22, NEK11 (Homo sapiens, UniProt Q8NG66); details: read-out: %Inhibition by 10 μM SPA70
T22 construct: purchased DiscoverX (Ambit Biosciences) KINOMEscan
T22 sequence (Q8NG66 whole entry): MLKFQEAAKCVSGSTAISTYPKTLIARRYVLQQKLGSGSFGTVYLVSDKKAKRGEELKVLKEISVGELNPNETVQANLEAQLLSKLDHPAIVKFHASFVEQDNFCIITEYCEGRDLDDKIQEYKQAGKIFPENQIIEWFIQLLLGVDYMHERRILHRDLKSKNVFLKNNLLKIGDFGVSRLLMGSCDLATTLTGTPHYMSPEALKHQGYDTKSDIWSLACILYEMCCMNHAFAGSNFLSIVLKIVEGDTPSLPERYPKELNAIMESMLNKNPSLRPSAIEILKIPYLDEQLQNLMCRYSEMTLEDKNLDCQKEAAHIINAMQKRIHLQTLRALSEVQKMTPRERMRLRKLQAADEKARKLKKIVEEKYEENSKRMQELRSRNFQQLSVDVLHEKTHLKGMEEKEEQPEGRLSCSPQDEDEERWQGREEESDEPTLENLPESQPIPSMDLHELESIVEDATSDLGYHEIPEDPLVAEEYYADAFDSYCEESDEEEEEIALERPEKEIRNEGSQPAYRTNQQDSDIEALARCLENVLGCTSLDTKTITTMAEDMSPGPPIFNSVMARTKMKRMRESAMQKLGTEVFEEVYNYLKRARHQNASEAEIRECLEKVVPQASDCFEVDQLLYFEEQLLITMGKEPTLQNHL
Protocol: as §1, §2, §3

AURKC = target: T23, AURKC (Homo sapiens, UniProt Q9UQB9); details: read-out: %Inhibition by 10 μM SPA70
T23 construct: purchased DiscoverX (Ambit Biosciences) KINOMEscan
Protocol: as §1, §2, §3

GSK3A = target: T24, GSK3A (Homo sapiens, UniProt P49840)
T24 construct: purchased DiscoverX (Ambit Biosciences) KINOMEscan
T24 sequence (P49840 whole entry): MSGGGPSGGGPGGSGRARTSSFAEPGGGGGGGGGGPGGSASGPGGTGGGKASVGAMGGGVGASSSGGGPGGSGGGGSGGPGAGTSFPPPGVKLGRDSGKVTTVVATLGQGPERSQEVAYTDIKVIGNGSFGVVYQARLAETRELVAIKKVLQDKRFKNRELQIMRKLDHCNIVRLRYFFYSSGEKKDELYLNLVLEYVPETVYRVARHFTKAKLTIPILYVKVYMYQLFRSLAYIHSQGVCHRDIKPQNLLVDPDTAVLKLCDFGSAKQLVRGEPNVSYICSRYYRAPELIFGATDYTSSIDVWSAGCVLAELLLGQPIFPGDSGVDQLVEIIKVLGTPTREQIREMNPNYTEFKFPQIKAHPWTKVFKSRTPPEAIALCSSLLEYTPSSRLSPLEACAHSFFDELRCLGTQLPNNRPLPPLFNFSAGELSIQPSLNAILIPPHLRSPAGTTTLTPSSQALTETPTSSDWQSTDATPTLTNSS
Protocol: as §1, §2, §3

PYK2 = target: T25, PYK2 (Homo sapiens, UniProt Q14289); details: read-out: %Inhibition by 10 μM SPA70
T25 construct: purchased DiscoverX (Ambit Biosciences) KINOMEscan
Protocol: as §1, §2, §3

DMPK2 = target: T26, DMPK2 (Homo sapiens, UniProt Q6DT37); details: read-out: %Inhibition by 10 μM SPA70
T26 construct: purchased DiscoverX (Ambit Biosciences) KINOMEscan
Protocol: as §1, §2, §3

RET = target: T27, RET (Homo sapiens, UniProt P07949); details: read-out: %Inhibition by 10 μM SPA70
T27 construct: purchased DiscoverX (Ambit Biosciences) KINOMEscan
Protocol: as §1, §2, §3

PRKD2 = target: T28, PRKD2 (Homo sapiens, UniProt Q9BZL6); details: read-out: %Inhibition by 10 μM SPA70
T28 construct: purchased DiscoverX (Ambit Biosciences) KINOMEscan
T28 sequence (Q9BZL6 whole entry): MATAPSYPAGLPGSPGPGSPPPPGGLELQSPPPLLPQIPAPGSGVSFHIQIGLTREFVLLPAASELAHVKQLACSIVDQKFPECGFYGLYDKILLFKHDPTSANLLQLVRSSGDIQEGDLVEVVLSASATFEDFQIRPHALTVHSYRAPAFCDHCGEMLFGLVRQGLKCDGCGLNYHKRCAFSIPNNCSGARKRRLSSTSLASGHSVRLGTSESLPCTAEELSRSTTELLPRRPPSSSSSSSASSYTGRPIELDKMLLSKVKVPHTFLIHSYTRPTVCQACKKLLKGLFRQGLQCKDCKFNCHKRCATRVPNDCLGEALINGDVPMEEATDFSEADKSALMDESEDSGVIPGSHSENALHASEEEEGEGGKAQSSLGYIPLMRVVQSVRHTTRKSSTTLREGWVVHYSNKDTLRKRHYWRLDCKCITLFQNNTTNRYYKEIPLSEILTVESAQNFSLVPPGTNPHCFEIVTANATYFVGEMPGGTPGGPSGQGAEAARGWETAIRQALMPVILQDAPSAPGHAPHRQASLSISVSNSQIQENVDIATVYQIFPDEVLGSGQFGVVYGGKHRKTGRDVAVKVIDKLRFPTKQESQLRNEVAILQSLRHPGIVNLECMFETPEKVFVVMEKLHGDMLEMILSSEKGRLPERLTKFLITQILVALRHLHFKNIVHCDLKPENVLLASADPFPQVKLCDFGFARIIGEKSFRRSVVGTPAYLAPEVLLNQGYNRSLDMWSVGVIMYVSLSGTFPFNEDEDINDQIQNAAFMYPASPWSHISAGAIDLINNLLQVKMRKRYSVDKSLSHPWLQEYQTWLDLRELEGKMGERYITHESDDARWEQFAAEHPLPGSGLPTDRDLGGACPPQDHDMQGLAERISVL
Protocol: as §1, §2, §3

S6K1 = target: T29, S6K1 (Homo sapiens, UniProt P23443); details: read-out: %Inhibition by 10 μM SPA70
T29 construct: purchased DiscoverX (Ambit Biosciences) KINOMEscan
Protocol: as §1, §2, §3

PKAC-alpha = target: T30, PKAC-alpha (Homo sapiens, UniProt P17612)
T30 construct: purchased DiscoverX (Ambit Biosciences) KINOMEscan
Protocol: as §1, §2, §3

TYRO3 = target: T31, TYRO3 (Homo sapiens, UniProt Q06418); details: read-out: %Inhibition by 10 μM SPA70
T31 construct: purchased DiscoverX (Ambit Biosciences) KINOMEscan
T31 sequence (Q06418 41-890): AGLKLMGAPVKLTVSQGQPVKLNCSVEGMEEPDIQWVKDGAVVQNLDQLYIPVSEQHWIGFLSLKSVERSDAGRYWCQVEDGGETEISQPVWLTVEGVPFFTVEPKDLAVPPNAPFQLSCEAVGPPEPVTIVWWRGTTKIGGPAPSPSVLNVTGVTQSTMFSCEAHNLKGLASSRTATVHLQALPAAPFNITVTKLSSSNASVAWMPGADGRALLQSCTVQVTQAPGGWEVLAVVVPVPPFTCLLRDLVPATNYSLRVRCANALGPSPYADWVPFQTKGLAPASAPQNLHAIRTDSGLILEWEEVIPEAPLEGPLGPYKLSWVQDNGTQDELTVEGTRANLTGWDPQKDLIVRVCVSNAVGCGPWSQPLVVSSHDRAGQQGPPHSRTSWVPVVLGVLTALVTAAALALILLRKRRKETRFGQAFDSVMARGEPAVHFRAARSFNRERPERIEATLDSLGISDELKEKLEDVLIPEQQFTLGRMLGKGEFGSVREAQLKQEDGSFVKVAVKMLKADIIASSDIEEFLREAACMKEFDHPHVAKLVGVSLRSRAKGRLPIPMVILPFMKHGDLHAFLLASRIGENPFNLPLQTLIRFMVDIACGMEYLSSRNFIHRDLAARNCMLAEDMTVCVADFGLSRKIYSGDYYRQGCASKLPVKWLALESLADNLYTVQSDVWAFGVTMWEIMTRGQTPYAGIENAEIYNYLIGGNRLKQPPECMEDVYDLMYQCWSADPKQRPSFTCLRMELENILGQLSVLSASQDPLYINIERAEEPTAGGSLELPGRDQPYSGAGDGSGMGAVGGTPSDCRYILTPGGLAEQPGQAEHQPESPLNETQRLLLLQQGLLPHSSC
Protocol: as §1, §2, §3

FES = target: T32, FES (Homo sapiens, UniProt P07332); details: read-out: %Inhibition by 10 μM SPA70
T32 construct: purchased DiscoverX (Ambit Biosciences) KINOMEscan
Protocol: as §1, §2, §3

JNK1 = target: T33, JNK1 (Homo sapiens, UniProt P45983)
T33 construct: purchased DiscoverX (Ambit Biosciences) KINOMEscan
Protocol: as §1, §2, §3

EPHA5 = target: T34, EPHA5 (Homo sapiens, UniProt P54756)
T34 construct: purchased DiscoverX (Ambit Biosciences) KINOMEscan
Protocol: as §1, §2, §3

NEK1 = target: T35, NEK1 (Homo sapiens, UniProt Q96PY6); details: read-out: %Inhibition by 10 μM SPA70
T35 construct: purchased DiscoverX (Ambit Biosciences) KINOMEscan
Protocol: as §1, §2, §3

PIK3CG = target: T36, PIK3CG (Homo sapiens, UniProt P48736); details: read-out: %Inhibition by 10 μM SPA70
T36 construct: purchased DiscoverX (Ambit Biosciences) KINOMEscan
Protocol: as §1, §2, §3

ASK1 = target: T37, ASK1 (Homo sapiens, UniProt Q99683); details: read-out: %Inhibition by 10 μM SPA70
T37 construct: purchased DiscoverX (Ambit Biosciences) KINOMEscan
Protocol: as §1, §2, §3

PRKCI = target: T38, PRKCI (Homo sapiens, UniProt P41743); details: read-out: %Inhibition by 10 μM SPA70
T38 construct: purchased DiscoverX (Ambit Biosciences) KINOMEscan
Protocol: as §1, §2, §3

ARK5 = target: T39, ARK5 (Homo sapiens, UniProt O60285)
T39 construct: purchased DiscoverX (Ambit Biosciences) KINOMEscan
Protocol: as §1, §2, §3

ERN1 = target: T40, ERN1 (Homo sapiens, UniProt O75460); details: read-out: %Inhibition by 10 μM SPA70
T40 construct: purchased DiscoverX (Ambit Biosciences) KINOMEscan
Protocol: as §1, §2, §3

CLK3 = target: T41, CLK3 (Homo sapiens, UniProt P49761); details: read-out: %Inhibition by 10 μM SPA70
T41 construct: purchased DiscoverX (Ambit Biosciences) KINOMEscan
T41 sequence (P49761 whole entry): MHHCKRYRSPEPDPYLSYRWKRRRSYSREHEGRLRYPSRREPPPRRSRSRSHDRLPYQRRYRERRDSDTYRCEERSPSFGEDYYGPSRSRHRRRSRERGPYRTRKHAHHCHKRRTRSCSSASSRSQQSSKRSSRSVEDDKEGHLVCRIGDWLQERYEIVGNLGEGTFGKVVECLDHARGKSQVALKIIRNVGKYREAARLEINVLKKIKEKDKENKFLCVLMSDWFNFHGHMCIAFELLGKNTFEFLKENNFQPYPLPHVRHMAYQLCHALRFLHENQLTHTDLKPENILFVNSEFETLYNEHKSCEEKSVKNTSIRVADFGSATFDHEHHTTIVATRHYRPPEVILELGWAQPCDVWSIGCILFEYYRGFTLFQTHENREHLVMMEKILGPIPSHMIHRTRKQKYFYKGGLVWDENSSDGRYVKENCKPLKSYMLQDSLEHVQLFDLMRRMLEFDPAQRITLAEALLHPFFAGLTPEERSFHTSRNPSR
Protocol: as §1, §2, §3

MELK = target: T42, MELK (Homo sapiens, UniProt Q14680); details: read-out: %Inhibition by 10 μM SPA70
T42 construct: purchased DiscoverX (Ambit Biosciences) KINOMEscan
Protocol: as §1, §2, §3

IRAK3 = target: T43, IRAK3 (Homo sapiens, UniProt Q9Y616); details: read-out: %Inhibition by 10 μM SPA70
T43 construct: purchased DiscoverX (Ambit Biosciences) KINOMEscan
Protocol: as §1, §2, §3

[1] = read-out: %Inhibition by 10 μM SPA70

COc1ccc(OC)c(-n2nnc(S(=O)(=O)c3ccc(C(C)(C)C)cc3)c2C)c1 [SPA70]
inhibition at 10 µM (CAMK2B): 13%
inhibition at 10 µM (PAK7): 26%
inhibition at 10 µM (RIOK3): 24%
inhibition at 10 µM (TRKC): 0%
%Inhibition by 10 μM SPA70 (PIP5K1C): 0%
inhibition at 10 µM (CSNK2A2): 10%
%Inhibition by 10 μM SPA70 (CIT): 12%
inhibition at 10 µM (CHEK2): 23%
inhibition at 10 µM (DYRK2): 12%
inhibition at 10 µM (HUNK): 15%
inhibition at 10 µM (CDKL3): 6%
inhibition at 10 µM (PHKG1): 0%
%Inhibition by 10 μM SPA70 (ULK1): 5%
%Inhibition by 10 μM SPA70 (JNK2): 0%
inhibition at 10 µM (GAK): 3%
%Inhibition by 10 μM SPA70 (DLK): 4%
inhibition at 10 µM (OSR1): 14%
inhibition at 10 µM (PCTK2): 0%
inhibition at 10 µM (WEE2): 1%
inhibition at 10 µM (FRK): 0%
inhibition at 10 µM (STK36): 0%
inhibition at 10 µM (NEK11): 34%
inhibition at 10 µM (AURKC): 2%
%Inhibition by 10 μM SPA70 (GSK3A): not inhibited
inhibition at 10 µM (GSK3A; [1]): 0%
inhibition at 10 µM (PYK2): 2%
inhibition at 10 µM (DMPK2): 3%
inhibition at 10 µM (RET): 0%
inhibition at 10 µM (PRKD2): 9%
inhibition at 10 µM (S6K1): 13%
%Inhibition by 10 μM SPA70 (PKAC-alpha): not inhibited
inhibition at 10 µM (PKAC-alpha; [1]): 0%
inhibition at 10 µM (TYRO3): 0%
inhibition at 10 µM (FES): 40%
%Inhibition by 10 μM SPA70 (JNK1): 9%
%Inhibition by 10 μM SPA70 (EPHA5): 0%
inhibition at 10 µM (NEK1): 0%
inhibition at 10 µM (PIK3CG): 9%
inhibition at 10 µM (ASK1): 4%
inhibition at 10 µM (PRKCI): 0%
%Inhibition by 10 μM SPA70 (ARK5): 41%
inhibition at 10 µM (ERN1): 0%
inhibition at 10 µM (CLK3): 0%
inhibition at 10 µM (MELK): 3%
inhibition at 10 µM (IRAK3): 15%
